Assay results from ChEMBL document CHEMBL5257127, “SolS-catalyzed sulfoxidation of labionin to solabionin drives antibacterial activity of solabiomycins” (2023).
Values after ≈ are worked out from the molar mass of the structure shown. Active and inactive are the calls of the source. The rule behind the calls is not given here.

How the values were obtained:
Candida albicans = assay: Antifungal activity against Candida albicans assessed as fungal growth inhibition at 20 nmol by paper disc diffusion assay; assay type: functional, organism-based
Streptomyces sp. [1] = assay: Antibacterial activity against Streptomyces sp. TP-A0584 assessed as bacterial growth inhibition at 20 nmol by paper disc diffusion assay; assay type: functional, organism-based
Staphylococcus aureus [2] = assay: Antibacterial activity against Staphylococcus aureus assessed as bacterial growth inhibition by paper disc diffusion assay; assay type: functional
Staphylococcus aureus [3] = assay: Antibacterial activity against Staphylococcus aureus assessed as bacterial growth inhibition at 20 nmol by paper disc diffusion assay; assay type: functional, organism-based
Saccharomyces cerevisiae = assay: Antifungal activity against Saccharomyces cerevisiae assessed as fungal growth inhibition at 20 nmol by paper disc diffusion assay; assay type: functional, organism-based
Escherichia coli [4] = assay: Antibacterial activity against Escherichia coli assessed as bacterial growth inhibition at 20 nmol by paper disc diffusion assay; assay type: functional, organism-based
Streptomyces lydicus = assay: Antibacterial activity against Streptomyces lydicus assessed as bacterial growth inhibition at 20 nmol by paper disc diffusion assay; assay type: functional, organism-based
Streptomyces sp. [5] = assay: Antibacterial activity against Streptomyces sp. assessed as bacterial growth inhibition at 20 nmol by paper disc diffusion assay; assay type: functional, organism-based
Micrococcus luteus [6] = assay: Antibacterial activity against Micrococcus luteus assessed as bacterial growth inhibition at 20 nmol by paper disc diffusion assay; assay type: functional, organism-based
Escherichia coli [7] = assay: Antibacterial activity against Escherichia coli RFM795 harboring lptD gene mutation assessed as bacterial growth inhibition at 20 nmol by paper disc diffusion assay; assay type: functional, organism-based
[8] = tested on: Mycolicibacterium smegmatis; assay: Antibacterial activity against Mycolicibacterium smegmatis assessed as bacterial growth inhibition by paper disc diffusion assay; assay type: functional
Streptomyces nigrescens = assay: Antibacterial activity against Streptomyces nigrescens HEK616 assessed as bacterial growth inhibition at 20 nmol by paper disc diffusion assay; assay type: functional, organism-based
[9] = tested on: Mycobacterium tuberculosis; assay: Antibacterial activity against Mycobacterium tuberculosis H37Rv assessed as bacterial growth inhibition; assay type: functional
Micrococcus luteus [10] = assay: Antibacterial activity against Micrococcus luteus assessed as bacterial growth inhibition by paper disc diffusion assay; assay type: functional
[11] = tested on: Mycolicibacterium smegmatis; assay: Antibacterial activity against Mycolicibacterium smegmatis assessed as bacterial growth inhibition at 20 nmol by paper disc diffusion assay; assay type: functional, organism-based

## C/C=C1/NC(=O)C(NC(=O)CNC(=O)CCCCCCCCCCCCNC(=N)N)CC2(C[S+]([O-])CC(C(=O)O)NC(=O)CNC(=O)CNC2=O)NC(=O)[C@H]([C@@H](C)CC)NC1=O (stereo not given in full)
Candida albicans
  Activity: inactive
Streptomyces sp. [1]
  Activity: Active
Staphylococcus aureus [2]
  MIC: 12.8 µM (≈ 11.5 µg/mL)
Staphylococcus aureus [3]
  Activity: Active
Saccharomyces cerevisiae
  Activity: inactive
Escherichia coli [4]
  Activity: Active
Streptomyces lydicus
  Activity: inactive
Streptomyces sp. [5]
  Activity: Active
Micrococcus luteus [6]
  Activity: Active
Escherichia coli [7]
  Activity: inactive
[8]
  MIC: 6.4 µM (≈ 5.73 µg/mL)
Streptomyces nigrescens
  Activity: inactive
[9]
  MIC: 0.35 µM (≈ 0.314 µg/mL)
Micrococcus luteus [10]
  MIC: 12.8 µM (≈ 11.5 µg/mL)
[11]
  Activity: Active

## NC[C@H]1O[C@H](O[C@H]2[C@H](O)[C@@H](O[C@H]3O[C@H](CO)[C@@H](O)[C@H](N)[C@H]3O)[C@H](N)C[C@@H]2N)[C@H](O)[C@@H](O)[C@@H]1O [KANAMYCIN]
Staphylococcus aureus [2]
  MIC: 0.2 µM (≈ 0.0969 µg/mL)
[8]
  MIC: 1.6 µM (≈ 0.775 µg/mL)
Micrococcus luteus [10]
  MIC: 12.8 µM (≈ 6.2 µg/mL)

## C/C=C1/NC(=O)C(NC(=O)CNC(=O)CCCCCCCCCCCCNC(=N)N)CC2(CSCC(C(=O)O)NC(=O)CNC(=O)CNC2=O)NC(=O)[C@H]([C@@H](C)CC)NC1=O (stereo not given in full)
Staphylococcus aureus [2]
  MIC: 51.2 µM (≈ 45.1 µg/mL)
Staphylococcus aureus [3]
  Activity: Active
Escherichia coli [4]
  Activity: Active
Streptomyces lydicus
  Activity: inactive
Streptomyces sp. [5]
  Activity: Active
Micrococcus luteus [6]
  Activity: Active
Escherichia coli [7]
  Activity: inactive
[8]
  MIC: 25.6 µM (≈ 22.5 µg/mL)
Streptomyces nigrescens
  Activity: inactive
Micrococcus luteus [10]
  MIC: 51.2 µM (≈ 45.1 µg/mL)
[11]
  Activity: Active

## C/C=C1/NC(=O)C(NC(=O)CNC(=O)CCCCCCCCCCCCNC(=N)N)CC2(C[S+]([O-])CC(C(=O)O)NC(=O)CNC(=O)CNC2=O)NC(=O)[C@H](C(C)C)NC1=O (stereo not given in full)
Candida albicans
  Activity: inactive
Streptomyces sp. [1]
  Activity: Active
Staphylococcus aureus [2]
  MIC: 51.2 µM (≈ 45.2 µg/mL)
Staphylococcus aureus [3]
  Activity: Active
Saccharomyces cerevisiae
  Activity: inactive
Escherichia coli [4]
  Activity: Active
Streptomyces lydicus
  Activity: inactive
Streptomyces sp. [5]
  Activity: Active
Micrococcus luteus [6]
  Activity: Active
Escherichia coli [7]
  Activity: inactive
[8]
  MIC: 25.6 µM (≈ 22.6 µg/mL)
Streptomyces nigrescens
  Activity: inactive
[9]
  MIC: 0.35 µM (≈ 0.309 µg/mL)
Micrococcus luteus [10]
  MIC: 25.6 µM (≈ 22.6 µg/mL)
[11]
  Activity: Active

## C/C=C1/NC(=O)C(NC(=O)CNC(=O)CCCCCCCCCCCCNC(=N)N)CC2(CSCC(C(=O)O)NC(=O)CNC(=O)CNC2=O)NC(=O)[C@H](C(C)C)NC1=O (stereo not given in full)
Staphylococcus aureus [2]
  MIC: 102 µM (≈ 88.7 µg/mL)
Staphylococcus aureus [3]
  Activity: Active
Escherichia coli [4]
  Activity: Active
Streptomyces lydicus
  Activity: inactive
Streptomyces sp. [5]
  Activity: Active
Micrococcus luteus [6]
  Activity: Active
Escherichia coli [7]
  Activity: inactive
[8]
  MIC: 51.2 µM (≈ 44.3 µg/mL)
Streptomyces nigrescens
  Activity: inactive
Micrococcus luteus [10]
  MIC: 102 µM (≈ 88.7 µg/mL)
[11]
  Activity: Active
